From publication PMC9953269, “In Vivo Acute Toxicity Studies of Novel Anti-Melanoma Compounds Downregulators of hnRNPH1/H2” (Biomolecules, 2023)
pIC50: −log10 of the molar value.

Tests used:
[1] = system: various cell types (liver, lung, breast, brain, skin, ovary, primary melanocytes, primary keratinocytes); details: in vitro, tested up to 100 µM; cited from earlier work
Balb/c mice [2] = experiment: Body weight during 21-day acute toxicity study; assay type: in vivo; details: 50 mg/kg BW sc 3×/week for 3 weeks, n=6
Procedure: (§1) This study used 5- to 7-week-old male and female Balb/c (Jackson Laboratories) mice. The mice were housed in standard mouse shoe-box cages and maintained in a 12-hr light/12-hr dark cycle, with 50% humidity and 20 ± 3 °C. The mice had free access to a standard pellet diet (Certified PicoLab® Rodent Diet 20, Lab Diet) and water ad libitum. The study was conducted in accordance with the guidelines of the Nova Southeastern University (NSU) Institutional Animal Care and Use Committee (NSU IACUC protocol 2019.12.DM4).
The animals were divided into four groups with each group containing six mice (three male and three female). Group 1: non-treated control mice; Group 2: animals were treated with a vehicle control (10%/90% DMSO/sterile water, USP sterile injectable grade) for 21 days; Group 3: animals were treated with 2155-14 (50 mg/kg body weight) for 21 days; and Group 4: animals were treated with 2155-18 (50 mg/kg body weight) for 21 days three times/week. Compounds (2155-14 and 2155-18) were freshly prepared in 10% DMSO/H2O (both USP injectable grade) for each treatment day. […]
(§2) Statistical significance was set at p < 0.05. All data were analyzed using one-way ANOVA to compare means, and significant differences were further analyzed by Tukey’s multiple comparisons using Prism (version 8.0, GraphPad Inc., San Diego, CA, USA).

Balb/c mice [3] = experiment: Overall acute toxicity after sc administration; assay type: in vivo; details: 50 mg/kg sc, 21 days
Procedure: as §1
The animals were divided into four groups with each group containing six mice (three male and three female). […]
All mice were euthanized after 21 days by CO2 overdose. […] Blood smears were prepared from whole blood and analyzed for the morphological changes of blood cells under the microscope.
(§3) The heart, lungs, stomach, intestines, pancreas, spleen, kidney with adrenal, liver, and brain were collected and placed in 10% neutral buffered formalin for histopathology. […] Tissues were evaluated for the presence of inflammation, degeneration, signs of toxicity, and any other abnormalities. […]

melanoma cells = details: in vitro; read-out: IC50, inhibition of viability of melanoma cells; cited from earlier work
Balb/c mice [4] = experiment: Histopathology of organs (H&E) after 21-day acute toxicity study; assay type: in vivo; details: 50 mg/kg sc, 21 days
Procedure: (§4) The animals were divided into four groups with each group containing six mice (three male and three female). Group 1: non-treated control mice; Group 2: animals were treated with a vehicle control (10%/90% DMSO/sterile water, USP sterile injectable grade) for 21 days; Group 3: animals were treated with 2155-14 (50 mg/kg body weight) for 21 days; and Group 4: animals were treated with 2155-18 (50 mg/kg body weight) for 21 days three times/week. Compounds (2155-14 and 2155-18) were freshly prepared in 10% DMSO/H2O (both USP injectable grade) for each treatment day. Both 2155-14 and 2155-18 were weighed into autoclaved 1.5 mL Eppendorf vials using analytical scales. USP grade DMSO was added to each vial under aseptic conditions and vortexed. USP grade injectable sterile H2O was then added to each vial and again vortexed. Next, 1 mL insulin syringes with a 26-gauge needle were filled with 0.2 mL of the compound and delivered to the vivarium in the closed carrier for animal treatment. For the vehicle control group, syringes were filled with 0.2 mL of 10% DMSO/H2O (USP injectable grade).
as §3

Balb/c mice [5] = experiment: Complete blood count (CBC) after 21-day acute toxicity study; assay type: in vivo; details: 50 mg/kg bw sc 3×/week for 21 days; for Eosinohils / Monocytes / WBC / RBC / Segmented Neutrophils / Hgb / MCH / MCHC / HCT / Lymphocytes / MCV / Platelets: mean ± SD; for Eosinohils: n=6, reference range 0.11–4.91; for Monocytes: n=6, reference range 3.29–12.48; for WBC: n=6, reference range 3.48–14.03; for RBC: n=6, reference range 6.93–12.24; for Segmented Neutrophils: n=6, reference range 9.86–39.11; for Hgb: n=6, reference range 12.6–20.5; for MCH: n=6, reference range 13.2–17.6; for MCHC: n=6, reference range 23.3–32.7; for HCT: n=6, reference range 42.1–68.3; for Lymphocytes: n=6, reference range 48.81–83.19; for MCV: n=6, reference range 50.7–64.4; for Platelets: n=6, reference range 420–1698; for Banded Neutrophils: n=6, reference range 0–1; for Basophils: n=6, reference range 0–1.84
Procedure: as §1, §4
(§5) All mice were euthanized after 21 days by CO2 overdose. Whole blood samples were collected via cardiocentesis with a 25-gauge needle immediately after euthanasia. Blood samples were collected in MiniCollect® Serum and Plasma Tubes containing either K3EDTA or lithium heparin for CBC and blood chemistry, respectively. Blood smears were prepared from whole blood and analyzed for the morphological changes of blood cells under the microscope.
(§6) The heart, lungs, stomach, intestines, pancreas, spleen, kidney with adrenal, liver, and brain were collected and placed in 10% neutral buffered formalin for histopathology. The tissues were processed via standard tissue processing to produce H&E slides. All H&E slides were reviewed blind to the treatment group. Tissues were evaluated for the presence of inflammation, degeneration, signs of toxicity, and any other abnormalities. CBC, blood chemistry, and histopathology analyses were performed at the Division of Comparative Pathology, University of Miami.
as §2

primary melanocytes = details: in vitro; cited from earlier work
Balb/c mice [6] = experiment: Blood chemistry after 21-day acute toxicity study; assay type: in vivo; details: 50 mg/kg bw sc 3×/week for 21 days, mean ± SD; for Creatinine: n=6, reference range 0.2–0.4; for Total protein: n=6, reference range 4.6–8.9; for BUN: n=6, reference range 7.0–26; for Phosphorus: n=6, reference range 8.2–14.7; for Calcium: n=6, reference range 9.4–12.5; for Glucose: n=6, reference range 129–329
Procedure: as §1, §4, §5, §6, §2

SMILES	TC50, toxicity against various cell types [1] [µM]	Change in body weight versus control groups (Balb/c mice [2])	Acute toxicity after sc administration (Balb/c mice [3])	pIC50 (melanoma cells)	Histopathological examination of hearts and livers (Balb/c mice [4])	Eosinohils (Balb/c mice [5]) [%]	Monocytes (Balb/c mice [5]) [%]	WBC (Balb/c mice [5]) [K/µL]	RBC (Balb/c mice [5]) [M/µL]	Segmented Neutrophils (Balb/c mice [5]) [%]	Hgb (Balb/c mice [5])	MCH (Balb/c mice [5]) [pg]	MCHC (Balb/c mice [5]) [g/dL]	HCT (Balb/c mice [5]) [%]	Lymphocytes (Balb/c mice [5]) [%]	MCV (Balb/c mice [5]) [fL]	Platelets (Balb/c mice [5]) [K/µL]	Banded Neutrophils (Balb/c mice [5]) [%]	Basophils (Balb/c mice [5]) [%]	Effect on viability of primary melanocytes (primary melanocytes)	other results
O=C1NC[C@H](Cc2ccccc2)N(C[C@@H]2CCCN2C[C@@H](CC2CCCCC2)N2C[C@H](Cc3ccc(O)cc3)N(CCc3ccccc3)C(=O)C2=O)C1=O [Compound 2155-14]	> 100	No significant changes in body weight	lack of acute toxicity	5.00 to 6.30	no adverse effects	0.5 ± 1.2	4.25 ± 4.27	5.1 ± 1.6	10.6 ± 2.1	18.8 ± 8.0	14.1 ± 1.6 g/dL	14 ± 2.3	23 ± 5.1	61.1	78.3 ± 7.5	61 ± 2.2	542 ± 95	0	0	do not have an effect on the viability of primary melanocytes	Creatinine (Balb/c mice [6]): * 0.44 ± 0.19 mg/dL; Total protein (Balb/c mice [6]): 7.1 ± 0.6 g/dL; BUN (Balb/c mice [6]): 18.3 ± 2.5 mg/dL; Phosphorus (Balb/c mice [6]): 13.6 ± 0.4 mg/dL; Calcium (Balb/c mice [6]): 9.1 ± 0.85 mg/dL; Glucose (Balb/c mice [6]): 181 ± 25.7 mg/dL
O=C1NC[C@H](Cc2ccccc2)N(C[C@@H]2CCCN2C[C@H](Cc2ccccc2)N2C[C@H](Cc3ccc(O)cc3)N(CCC34CC5CC(CC(C5)C3)C4)C(=O)C2=O)C1=O [Compound 2155-18]	> 100	No significant changes in body weight	lack of acute toxicity	5.00 to 6.30	no adverse effects	2 ± 1	6.7 ± 2.3	4.2 ± 2.7	7.9 ± 1.4	24.7 ± 10.9	* 11.9 ± 1.6 g/dL	14.7 ± 0.57	25.3 ± 0.58	46.9 ± 6.4	70.7 ± 11.3	59.3 ± 2.1	741 ± 305	0	0	do not have an effect on the viability of primary melanocytes	Creatinine (Balb/c mice [6]): * 0.46 ± 0.11 mg/dL; Total protein (Balb/c mice [6]): 6.7 ± 0.48 g/dL; BUN (Balb/c mice [6]): 16.7 ± 1.6 mg/dL; Phosphorus (Balb/c mice [6]): * 15.3 ± 0.25 mg/dL; Calcium (Balb/c mice [6]): 8.7 ± 0.75 mg/dL; Glucose (Balb/c mice [6]): 212 ± 50.5 mg/dL
